In brackets after ≈: the same amount, converted by molar mass. Like-named read-outs stand apart in the source and are kept apart here.
Tests used:
[1] = tested on: MCF-7 human breast cancer cells; assay: In vitro cytotoxicity, MTT assay; format: cell-based; conditions: MCF7, 120 h, doxorubicin 15.62 nM to 1000 nM, MTT on day 5
Protocol: […]. On day 5 cytotoxicity analysis was performed using an MTT assay. Data points represents average±SE (n=4). […].
The cells were washed twice with ice cold phosphate buffer and replaced with fresh media. Media was replaced for every 48 hours. At day 5, cytotoxicity analysis was performed using the MTT assay.

[2] = cited from earlier work
[3] = tested on: JC mouse breast cancer cells; assay: In vivo biodistribution in allograft breast tumor mouse model; conditions: i.v.; 3 hours after administration
Protocol: The tumor model was developed by subcutaneous injection of JC mouse breast cancer cells. […] Animals were sacrificed 3 hours after treatment administration. Tumor and organs were collected. Doxorubicin concentration in tumors and organs were determined using a fluorescence based isocratic HPLC method. […] Female nude mice (Charles River Laboratories, Wilmington, Mass.) were used in the study. JC mouse breast cancer cells (1×10^7 cells) were suspended in PBS and injected subcutaneously. […] After 3 hours, the mice were sacrificed and organs (liver, heart, lungs, spleen, brain and tumor) were collected and homogenized in 2 mL deionized water using a tissue homogenizer. After addition of 100 ng of daunorubicin (internal standard), tissue homogenates were lyophilized.
Dry tissues were weighed and extracted with 5 mL of methanol/chloroform mixture (65:35) using a shaker for 5 hours in the dark at room temperature. The extract was centrifuged at 13,000 rpm for 10 minutes at 4° C. The supernatant was evaporated under nitrogen gas and reconstituted in methanol/acetonitrile (50:50).

[4] = tested on: NCl/ADR-RES drug resistant human ovarian cancer cells; assay: In vitro cytotoxicity, MTT assay; format: cell-based
Protocol: On the fifth day cytotoxicity analysis was performed using an MTT assay. Data points represent average±SE (n=4).
On day 5 cytotoxicity analysis was measured using an MTT assay. Data points represent average±SE (n=4).
The cells were washed twice with ice cold phosphate buffer and replaced with fresh media. […] On day 5 cytotoxicity analysis was performed using an MTT assay.
On the fifth day cytotoxicity analysis was performed using the MTT assay.

[5] = comparison surfactant / block copolymers; cited from earlier work
[6] = cited from earlier work; remark: listed apart in the source

Row | doxorubicin accumulation in tumor [3] | Compound | IC50 [1] [nM] | solubility in water ([2]; free compound) | solubility in water ([2]; free drug) [µg/mL] | IC50 ([4]; 120 h, doxorubicin 31.25 nM to 1000 nM, MTT on day 5, read-out: IC50) [nM] | critical micellar concentration (CMC) [5] | Log P ([6]; Table 3, cargo compound itself) | Log P [6] | IC50 ([4]; 96 h) [nM]
1 | no drug accumulation | COc1cccc2c1C(=O)c1c(O)c3c(c(O)c1C2=O)C[C@@](O)(C(=O)CO)C[C@@H]3O[C@H]1C[C@H](N)[C@H](O)[C@H](C)O1 [Doxorubicin] | 148 | practically insoluble in water | 0.015 (≈ 0.0276 µM) | 126 |  |  |  | 
2 |  | CCCCCCCCCCCCOS(=O)(=O)[O-].[Na+] [sodium dodecyl sulfate] |  |  |  |  | about 2.304 g/L |  |  | 
3 |  | CCN(CC)c1ccc2nc3c4ccccc4c(=O)cc-3oc2c1 [Nile red] |  | practically insoluble in water |  |  |  | 5 |  | 
4 |  | COc1cc(/C=C/C(=O)/C=C(O)/C=C/c2ccc(O)c(OC)c2)ccc1O [Curcumin] |  | practically insoluble in water | 0.011 (≈ 0.0299 µM) |  |  | 2.5 | 2.5 | 104
